Assay results taken from patent publication US20170143674A1, “Use of Glutaryl Histamine for the Treatment of Respiratory Tract Diseases” (LTD "VALENTA-INTELLEKT", priority 2011, published 2017).
Like-named read-outs stand apart in the source and are kept apart here. Marks after values point to notes of the source that are not given here.

Key:
Format in all cases: in vivo, rat
[1] = system: acute rhinosinusitis induced by intranasal administration of formalin; conditions: for The number of caliciform cells within 1 mm of the mucosal membrane of the nasal septum: M ± m; for Mucopurulent catarrh (number of rats) / Mucous catarrh (number of rats) / Without changes (number of rats, mucous membrane in the nasal passages, macroscopic): n = 10
Protocol: Activity of glutaryl histamine was studied in an experimental model of acute rhinosinusitis (ARS).
Administration of 20 μl of 7.5% formalin to the rat nasal passages leads to the development of a clinical picture similar to the symptoms of acute rhinosinusitis in a human.
The tested medicament and reference medicaments were administered for 7 days after administration of 7.5% formalin. Normal saline solution was used as placebo. The animals were subjected to euthanasia on day 8 after induction of experimental acute rhinosinusitis by method of air embolism. During necropsy, nasal passages of all animals were sampled. The obtained material was placed into 10% neutral-buffered formalin for further histological analysis.
The mucous and submucous membranes of both nasal passages (respiratory and olfactory regions) of the experimental animals were subjected to a morphological analysis of the specific activity of glutaryl histamine.
After the clinical phase of the experiment, the material derived from the animals was subjected to the standard treatment to prepare histological paraffin sections with a thickness of 3 to 5 μm. The sections were stained with hematoxylin and eosin for a microscopic study. Comparison and histological analysis of changes were performed versus the group of intact rats.
The main pathological processes inherent in experimental acute rhinosinusitis, such as vascular congestion in mucous membrane, hyperplasia and necrosis of the epithelium, the number of caliciform cells within 1 mm of the mucous membrane in the nasal septum, were evaluated by a semi-quantitative method to evaluate the degree of pathophysiological changes in histological, histochemical and morphological studies.
The microscopic analysis of exudative disorder developed in rats with acute rhinitis was aimed at measuring the number of caliciform cells comprising acidic mucus (Table 3).

[2] = system: acute respiratory distress syndrome (ARDS); test: ARDS model, single intravenous LPS 7.5 mg/kg; conditions: for Me (%) (mortality rate): 8 days; for Died: total number 10
Protocol: (§1) Since an intravenous administration of lipopolysaccharide (LPS) to animals is one of the most acceptable models for studying the pathogenesis, pathomorphological changes and consequences of acute respiratory distress syndrome, this model was used in this example. Tested medicament glutaryl histamine was administered for 9 days after the first administration of LPS, i.e. glutaryl histamine was administered for 12 days in total (3 days before the induction of ARDS and 9 days during and after the induction). The exception was dexamethasone since, according to the literature data and the information leaflet, long-time administration of steroidal anti-inflammatory agents can cause severe side effects. For this reason, dexamethasone was administered according to the following schedule: 49, 24 and 1 hour before the induction of ARDS in a dose of 5 mg/kg, for 3 days after the first injection of LPS in the same dose; the medicament was withdrawn by a gradual dose reduction for 3 days. Thus, dexamethasone was administered 9 times.
The mortality rate among the animals administered LPS in an intravenous dose of 7.5 mg/kg was 70% for 8 days. The most of them (60%) died on the first day, in particular, from 4 to 12-16 hours after the injection of LPS. The mortality rate among the animals administered glutaryl histamine was different from the rate in animals treated with dexamethasone; however, most of them also died on the first day, about in the same time period (Table 11).

[3] = system: acute respiratory distress syndrome (ARDS); test: ARDS model, multiple-dose intravenous LPS (LD30); conditions: for Died: total number 24
Protocol: as §1
At this step, animals were administered LPS at more lower dose, but for longer time period. They were received 2 mg/kg on days 1 and 2, and 3 and 4 mg/kg on days 3 and 4, respectively. The maximum mortality rate, similarly to the single-dose administration of LD70, was on the first day. On eighth day, mortality reached 33%.
The second step of the experiment comprises the evaluation of both the mortality rate of the animals with calculation of the protective index and narrower indexes used for determination of a specific protection provided by glutaryl histamine in ARDS. As was disclosed above, a lower dose of LPS (LD30) was used at the second stage. In addition, LPS was administered every day for 4 days. This method of administration was aimed at achieving the maximum disorder exactly in the lung for subsequent evaluation of possible protective action of glutaryl histamine.

[4] = Glutaryl histamine 27 mg/kg, listed as Glutaryl histamine

O=C(O)CCCC(=O)NCCc1c[nH]cn1 [glutaryl histamine]
The number of caliciform cells within 1 mm of the mucosal membrane of the nasal septum ([1]; Glutaryl histamine 9 mg/kg): 29.0 ± 2.7* ** | Mucopurulent catarrh (number of rats) ([1]; Glutaryl histamine 9 mg/kg): 3 | Mucous catarrh (number of rats) ([1]; Glutaryl histamine 9 mg/kg): 4 | Without changes (number of rats, mucous membrane in the nasal passages, macroscopic) ([1]; Glutaryl histamine 9 mg/kg): 3 | The number of caliciform cells within 1 mm of the mucosal membrane of the nasal septum ([1]; Glutaryl histamine 27 mg/kg): 19.6±2.4 | The number of caliciform cells within 1 mm of the mucosal membrane of the nasal septum [1, 4]: 19.6 ± 2.4 | Mucopurulent catarrh (number of rats) ([1]; Glutaryl histamine 27 mg/kg): 1 | Mucous catarrh (number of rats) ([1]; Glutaryl histamine 27 mg/kg): 1 | Without changes (number of rats, mucous membrane in the nasal passages, macroscopic) ([1]; Glutaryl histamine 27 mg/kg): 8 | The number of caliciform cells within 1 mm of the mucosal membrane of the nasal septum ([1]; Glutaryl histamine 45 mg/kg): 23.9 ± 1.7* ** | Mucopurulent catarrh (number of rats) ([1]; Glutaryl histamine 45 mg/kg): 0 | Mucous catarrh (number of rats) ([1]; Glutaryl histamine 45 mg/kg): 0 | Without changes (number of rats, mucous membrane in the nasal passages, macroscopic) ([1]; Glutaryl histamine 45 mg/kg): 10 | IP (%) (protective index) ([2]; Glutaryl histamine 0.5 mg/kg): 57.1% | S (%) (survival rate) ([2]; Glutaryl histamine 0.5 mg/kg): 70% | Me (%) (mortality rate) ([2]; Glutaryl histamine 0.5 mg/kg): 30% | Died ([2]; Glutaryl histamine 0.5 mg/kg): 3 | IP (%) (protective index) ([2]; Glutaryl histamine 3 mg/kg): 28.6% | S (%) (survival rate) ([2]; Glutaryl histamine 3 mg/kg): 50% | Me (%) (mortality rate) ([2]; Glutaryl histamine 3 mg/kg): 50% | Died ([2]; Glutaryl histamine 3 mg/kg): 5 | IP (%) (protective index) ([2]; Glutaryl histamine 9 mg/kg): 42.9% | S (%) (survival rate) ([2]; Glutaryl histamine 9 mg/kg): 60% | Me (%) (mortality rate) ([2]; Glutaryl histamine 9 mg/kg): 40% | Died ([2]; Glutaryl histamine 9 mg/kg): 4 | IP (%) (protective index) ([2]; Glutaryl histamine 18 mg/kg): 28.6% | S (%) (survival rate) ([2]; Glutaryl histamine 18 mg/kg): 50% | Me (%) (mortality rate) ([2]; Glutaryl histamine 18 mg/kg): 50% | Died ([2]; Glutaryl histamine 18 mg/kg): 5 | IP (%) (protective index) ([2]; Glutaryl histamine 27 mg/kg): 71.4% | S (%) (survival rate) ([2]; Glutaryl histamine 27 mg/kg): 80% | Me (%) (mortality rate) ([2]; Glutaryl histamine 27 mg/kg): 20% | Died ([2]; Glutaryl histamine 27 mg/kg): 2 | IP (%) (protective index) ([2]; Glutaryl histamine 45 mg/kg): 28.6% | S (%) (survival rate) ([2]; Glutaryl histamine 45 mg/kg): 50% | Me (%) (mortality rate) ([2]; Glutaryl histamine 45 mg/kg): 50% | Died ([2]; Glutaryl histamine 45 mg/kg): 5 | IP (%) (protective index) ([3]; Glutaryl histamine 0.5 mg/kg): 62.5% | M (%) (mortality rate) ([3]; Glutaryl histamine 0.5 mg/kg): 12.5% | S (%) (survival rate) ([3]; Glutaryl histamine 0.5 mg/kg): 87.5% | Died ([3]; Glutaryl histamine 0.5 mg/kg): 3 | IP (%) (protective index) ([3]; Glutaryl histamine 27 mg/kg): 75% | M (%) (mortality rate) ([3]; Glutaryl histamine 27 mg/kg): 8.3% | S (%) (survival rate) ([3]; Glutaryl histamine 27 mg/kg): 91.7% | IP (%) (protective index) [3, 4]: 75.0% | Died ([3]; Glutaryl histamine 27 mg/kg): 2
